The results in this text go back to ChEMBL document CHEMBL4190357, “New Substituted Cyanoindoline Derivatives as MAP3K14 Kinase Inhibitors for the Treatment of Cancer and Autoimmune Disorders” (ACS Med Chem Lett, 2017).

Where only a bound is given, the exact number is not on record here.

The target in assay [1] is T1, Mitogen-activated protein kinase kinase kinase 14 (Homo sapiens, UniProt Q99558). As to the kind of experiment: Inhibition of MAP3K14 in human L363 assessed as decrease in IKKalpha phosphorylation level after 2 hrs by sandwich immuno assay.
T1 sequence (Q99558 whole entry): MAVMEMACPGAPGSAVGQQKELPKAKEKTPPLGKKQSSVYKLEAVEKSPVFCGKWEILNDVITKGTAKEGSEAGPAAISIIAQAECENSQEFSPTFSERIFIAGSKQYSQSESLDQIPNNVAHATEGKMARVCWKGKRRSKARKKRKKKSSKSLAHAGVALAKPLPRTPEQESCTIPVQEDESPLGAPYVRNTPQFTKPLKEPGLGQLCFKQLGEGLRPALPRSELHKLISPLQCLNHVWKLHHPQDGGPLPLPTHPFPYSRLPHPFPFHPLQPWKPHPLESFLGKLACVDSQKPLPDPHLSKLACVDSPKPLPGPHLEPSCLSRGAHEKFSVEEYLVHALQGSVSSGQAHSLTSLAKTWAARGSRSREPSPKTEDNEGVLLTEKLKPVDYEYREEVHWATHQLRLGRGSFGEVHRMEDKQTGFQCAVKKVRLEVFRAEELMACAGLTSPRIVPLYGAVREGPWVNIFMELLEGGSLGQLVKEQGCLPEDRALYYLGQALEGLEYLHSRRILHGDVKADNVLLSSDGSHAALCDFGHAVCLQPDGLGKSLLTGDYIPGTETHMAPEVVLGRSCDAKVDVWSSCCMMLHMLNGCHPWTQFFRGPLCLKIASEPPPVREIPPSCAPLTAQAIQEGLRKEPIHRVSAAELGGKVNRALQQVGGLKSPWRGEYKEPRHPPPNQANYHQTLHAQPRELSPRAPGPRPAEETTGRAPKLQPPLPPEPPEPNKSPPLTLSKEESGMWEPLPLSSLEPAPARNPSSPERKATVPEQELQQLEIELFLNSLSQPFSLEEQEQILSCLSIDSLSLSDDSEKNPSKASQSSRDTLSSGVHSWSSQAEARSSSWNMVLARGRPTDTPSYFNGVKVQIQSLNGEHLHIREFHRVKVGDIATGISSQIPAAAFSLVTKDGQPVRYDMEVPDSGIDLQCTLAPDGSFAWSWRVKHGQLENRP
The subject of the next assay is KMS-12-BM. The experiment in a line: Antiproliferative activity against human KMS-12-BM cells after 96 hrs by CellTiter-Glo luminescence assay. In kind it is functional, cell-based. (ATP-based viability assays read luminescence as a measure of living cells.)
In another assay the test system is JJN-3. The experiment in a line: Antiproliferative activity against human JJN-3 cells after 96 hrs by CellTiter-Glo luminescence assay. The class given is functional, cell-based. Particulars: JJN-3, 96 h.
Assay [2] concerns the target T1, Mitogen-activated protein kinase kinase kinase 14. As to the kind of experiment: Inhibition of recombinant human GST-tagged MAP3K14 autophosphorylation after 1 hr by Alpha screen assay. (In general: Bead proximity is the source of the signal in Alpha formats.)

Broadly, the IC50 is the concentration at which inhibition is half-maximal. Turning to `CC(C)Oc1ccc(CO)cc1Nc1nccc(-c2cc(C#N)c3c(c2)[C@@](C)(CO)CN3)n1`, the IC50 in assay [1] was 6.6 nM; in the assay on KMS-12-BM it was greater than 10000 nM; in the assay on JJN-3 it was 141 nM.

In the case of `[2H]C([2H])(O)c1ccc(C)c(Nc2nccc(-c3cc(C#N)c4c(c3)[C@@](C)(CO)CN4)n2)c1`, the IC50 in assay [1] was 2.2 nM; with KMS-12-BM, greater than 10000 nM; in the assay with JJN-3, 91 nM.

Take `Cc1cc(F)c(CO)cc1Nc1nccc(-c2cc(C#N)c3c(c2)[C@@](C)(CO)CN3)n1`: the IC50 was 7.8 nM in assay [1], greater than 10000 nM with KMS-12-BM and 272 nM with JJN-3.

As to `CC(C)(O)COc1ccc(C#N)cc1Nc1nccc(-c2cc(C#N)c3c(c2)[C@@](C)(CO)CN3)n1`, the values for the IC50 (in assay [1]; with KMS-12-BM; with JJN-3) were 25.7 nM, 4900 nM and 138 nM, respectively.

For `Cc1ccc(C#N)cc1Nc1ncc(F)c(-c2cc(C#N)c3c(c2)[C@@](C)(CO)CN3)n1`, the IC50 was 1.2 nM in assay [1], greater than 10000 nM in the assay with KMS-12-BM and 302 nM in the assay with JJN-3.

Regarding `CN1CC(F)C(Oc2ccc(C#N)cc2Nc2nccc(-c3cc(C#N)c4c(c3)[C@@](C)(CO)CN4)n2)C1` (some centres not stated), the figures for the IC50 (in assay [1]; with KMS-12-BM; in the assay with JJN-3) were 21.4 nM, greater than 10000 nM and 741 nM, respectively.

Take `C[C@]1(CO)CNc2c(C#N)cc(-c3ccnc(Nc4cc(C#N)ccc4OC4CC4)n3)cc21`: the values for the IC50 (in assay [1]; with KMS-12-BM; in the assay on JJN-3) were 11.5 nM, 1230 nM and 67 nM, respectively.

As to `CNC(=O)c1ccc(OC(C)C)c(Nc2nccc(-c3cc(C#N)c4c(c3)[C@@](C)(CO)CN4)n2)c1`, the half-maximal inhibitory concentration (IC50) in assay [1] was 19.5 nM; in the assay on KMS-12-BM, greater than 10000 nM; with JJN-3 it was 288 nM.

Take `Cc1cc(F)c(C#N)cc1Nc1nccc(-c2cc(C#N)c3c(c2)[C@@](C)(CO)CN3)n1`: the IC50 was 6 nM in assay [1], greater than 10000 nM with KMS-12-BM and 617 nM with JJN-3.

As for `Cc1cc(CCN2CCOCC2)c(C#N)cc1Nc1nccc(-c2cc(C#N)c3c(c2)[C@@](C)(CO)CN3)n1`, the IC50 was 1.3 nM in assay [1], greater than 10000 nM in the assay on KMS-12-BM and 29 nM in the assay with JJN-3.

On to `CNC(=O)c1ccc(C)c(Nc2nccc(-c3cc(C#N)c4c(c3)[C@@](C)(CO)CN4)n2)c1`, for which the 50% inhibitory concentration (IC50) in assay [2] amounted to 1.8 nM; in assay [1], 2.2 nM; in the assay on KMS-12-BM, 5190 nM; with JJN-3, 85 nM.

With `C[C@]1(CO)CNc2c(C#N)cc(-c3ccnc(Nc4cc(C#N)ccc4CO)n3)cc21`, the IC50 was 6.3 nM in assay [1], greater than 10000 nM with KMS-12-BM and 240 nM in the assay with JJN-3.
